Assay results as given in the kinase profiling compilation of Christmann-Franck et al. (2016).
Values joined by “and” are separate entries in the source; they are usually repeats but may differ in a detail not shown here. Equal values may be shown once.

Legend:
Test in all cases: radiometric filter-binding kinase assay, Kinase HotSpot
Conditions in all cases: compound 0.5 µM; ATP 10 µM
CSNK2A2 (human) = CSNK2A2 (human) (UniProt P19784)
PAK4 (human) = PAK4 (human) (UniProt O96013)
PRKCB2 (human) = PRKCB2 (human) (UniProt P05771)
DYRK3 (human) = DYRK3 (human) (UniProt O43781)
ERBB2 (human) = ERBB2 (human) (UniProt P04626)
VRK1 (human) = VRK1 (human) (UniProt Q99986)
CDK2 CCNA2 (human) = CDK2 CCNA2 (human) (UniProt P24941+P20248)
NUAK1 (human) = NUAK1 (human) (UniProt O60285)
HIPK3 (human) = HIPK3 (human) (UniProt Q9H422)
MUSK (human) = MUSK (human) (UniProt O15146)
PASK (human) = PASK (human) (UniProt Q96RG2)
RPS6KA2 KD1 KD2 (human) = RPS6KA2 KD1 KD2 (human) (UniProt Q15349)
MELK (human) = MELK (human) (UniProt Q14680)
PLK2 (human) = PLK2 (human) (UniProt Q9NYY3)
NEK7 (human) = NEK7 (human) (UniProt Q8TDX7)
LCK (human) = LCK (human) (UniProt P06239)
AKT2 (human) = AKT2 (human) (UniProt P31751)
MAPKAPK3 (human) = MAPKAPK3 (human) (UniProt Q16644)
MAP3K11 (human) = MAP3K11 (human) (UniProt Q16584)
TBK1 (human) = TBK1 (human) (UniProt Q9UHD2)
SRC (human) = SRC (human) (UniProt P12931)
ROCK1 (human) = ROCK1 (human) (UniProt Q13464)
CDK1 CCNA2 (human) = CDK1 CCNA2 (human) (UniProt P06493+P20248)
DSTYK (human) = DSTYK (human) (UniProt Q6XUX3)
PAK3 (human) = PAK3 (human) (UniProt O75914)
INSR (human) = INSR (human) (UniProt P06213)
HCK (human) = HCK (human) (UniProt P08631)
CLK2 (human) = CLK2 (human) (UniProt P49760)
LYN (human) = LYN (human) (UniProt P07948)
TSSK2 (human) = TSSK2 (human) (UniProt Q96PF2)
NTRK3 (human) = NTRK3 (human) (UniProt Q16288)
NEK3 (human) = NEK3 (human) (UniProt P51956)
TSSK1B (human) = TSSK1B (human) (UniProt Q9BXA7)
CSK (human) = CSK (human) (UniProt P41240)
MINK1 (human) = MINK1 (human) (UniProt Q8N4C8)
DMPK (human) = DMPK (human) (UniProt Q09013)
EPHA3 (human) = EPHA3 (human) (UniProt P29320)
IKBKE (human) = IKBKE (human) (UniProt Q14164)
BRSK2 (human) = BRSK2 (human) (UniProt Q8IWQ3)
MKNK2 (human) = MKNK2 (human) (UniProt Q9HBH9)
MAPKAPK2 (human) = MAPKAPK2 (human) (UniProt P49137)
CSNK1G3 (human) = CSNK1G3 (human) (UniProt Q9Y6M4)

Sequence of VRK1 (human) (Q99986 whole entry, looked up): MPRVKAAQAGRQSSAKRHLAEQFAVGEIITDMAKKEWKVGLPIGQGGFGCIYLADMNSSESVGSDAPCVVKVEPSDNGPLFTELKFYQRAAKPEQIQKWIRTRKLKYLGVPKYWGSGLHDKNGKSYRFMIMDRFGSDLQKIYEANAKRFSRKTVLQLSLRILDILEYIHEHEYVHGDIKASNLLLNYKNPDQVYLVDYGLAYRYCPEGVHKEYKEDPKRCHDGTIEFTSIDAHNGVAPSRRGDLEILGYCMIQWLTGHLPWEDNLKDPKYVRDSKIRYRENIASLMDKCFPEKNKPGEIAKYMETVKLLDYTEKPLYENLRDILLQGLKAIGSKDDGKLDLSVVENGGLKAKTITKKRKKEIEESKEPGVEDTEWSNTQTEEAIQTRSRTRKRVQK
Sequence of LYN (human) (P07948 whole entry, looked up): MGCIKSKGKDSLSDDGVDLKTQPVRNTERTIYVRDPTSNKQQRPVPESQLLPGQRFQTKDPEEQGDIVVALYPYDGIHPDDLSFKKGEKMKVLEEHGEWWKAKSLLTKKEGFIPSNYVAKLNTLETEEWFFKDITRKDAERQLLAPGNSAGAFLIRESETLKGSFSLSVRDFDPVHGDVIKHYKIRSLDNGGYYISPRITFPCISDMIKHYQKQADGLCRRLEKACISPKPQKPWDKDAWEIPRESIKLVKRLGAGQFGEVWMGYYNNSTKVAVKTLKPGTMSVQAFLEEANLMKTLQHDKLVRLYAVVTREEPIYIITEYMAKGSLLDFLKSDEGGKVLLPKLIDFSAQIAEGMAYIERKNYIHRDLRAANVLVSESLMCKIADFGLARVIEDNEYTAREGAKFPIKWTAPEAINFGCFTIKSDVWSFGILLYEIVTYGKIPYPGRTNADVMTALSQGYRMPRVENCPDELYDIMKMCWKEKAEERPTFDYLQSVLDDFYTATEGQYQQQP
Sequence of TSSK1B (human) (Q9BXA7 whole entry, looked up): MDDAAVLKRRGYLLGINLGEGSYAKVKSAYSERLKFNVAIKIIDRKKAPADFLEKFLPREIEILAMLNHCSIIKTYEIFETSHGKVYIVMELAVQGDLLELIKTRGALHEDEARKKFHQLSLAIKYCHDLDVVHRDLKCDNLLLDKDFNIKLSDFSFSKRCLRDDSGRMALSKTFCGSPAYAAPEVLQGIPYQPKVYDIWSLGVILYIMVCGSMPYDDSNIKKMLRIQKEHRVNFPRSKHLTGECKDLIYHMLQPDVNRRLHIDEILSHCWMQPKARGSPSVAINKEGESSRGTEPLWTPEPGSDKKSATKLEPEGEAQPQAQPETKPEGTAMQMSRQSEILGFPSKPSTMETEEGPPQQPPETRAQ
Sequence of RPS6KA2 KD1 KD2 (human) (Q15349 whole entry, looked up): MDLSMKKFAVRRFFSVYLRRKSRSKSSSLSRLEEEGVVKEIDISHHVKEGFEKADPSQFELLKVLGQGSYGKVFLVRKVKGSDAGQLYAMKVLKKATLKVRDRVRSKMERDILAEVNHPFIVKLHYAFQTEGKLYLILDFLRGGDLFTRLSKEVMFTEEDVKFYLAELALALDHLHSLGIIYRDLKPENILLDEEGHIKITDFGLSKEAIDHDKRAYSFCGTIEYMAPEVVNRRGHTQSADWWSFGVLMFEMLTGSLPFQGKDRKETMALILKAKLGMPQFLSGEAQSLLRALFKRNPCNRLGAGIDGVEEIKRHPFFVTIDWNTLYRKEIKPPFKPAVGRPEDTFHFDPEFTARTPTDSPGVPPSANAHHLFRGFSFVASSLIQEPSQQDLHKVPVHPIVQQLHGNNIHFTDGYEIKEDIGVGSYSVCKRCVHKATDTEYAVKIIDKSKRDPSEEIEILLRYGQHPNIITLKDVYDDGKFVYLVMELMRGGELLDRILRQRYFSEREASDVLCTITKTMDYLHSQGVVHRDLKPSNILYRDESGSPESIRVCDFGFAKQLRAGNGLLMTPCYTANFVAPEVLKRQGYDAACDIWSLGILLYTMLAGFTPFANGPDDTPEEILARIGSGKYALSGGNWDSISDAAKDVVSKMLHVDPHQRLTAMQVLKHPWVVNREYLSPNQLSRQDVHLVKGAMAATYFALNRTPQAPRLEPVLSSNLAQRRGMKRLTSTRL
Sequence of NEK7 (human) (Q8TDX7 whole entry, looked up): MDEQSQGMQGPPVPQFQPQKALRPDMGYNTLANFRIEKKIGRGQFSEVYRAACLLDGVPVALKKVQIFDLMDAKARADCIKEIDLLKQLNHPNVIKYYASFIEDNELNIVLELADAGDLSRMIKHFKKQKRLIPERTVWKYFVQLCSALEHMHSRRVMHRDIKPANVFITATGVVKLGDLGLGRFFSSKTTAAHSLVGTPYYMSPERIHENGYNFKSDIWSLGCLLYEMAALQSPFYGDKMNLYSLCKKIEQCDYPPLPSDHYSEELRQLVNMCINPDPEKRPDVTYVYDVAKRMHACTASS
Sequence of MKNK2 (human) (Q9HBH9 whole entry, looked up): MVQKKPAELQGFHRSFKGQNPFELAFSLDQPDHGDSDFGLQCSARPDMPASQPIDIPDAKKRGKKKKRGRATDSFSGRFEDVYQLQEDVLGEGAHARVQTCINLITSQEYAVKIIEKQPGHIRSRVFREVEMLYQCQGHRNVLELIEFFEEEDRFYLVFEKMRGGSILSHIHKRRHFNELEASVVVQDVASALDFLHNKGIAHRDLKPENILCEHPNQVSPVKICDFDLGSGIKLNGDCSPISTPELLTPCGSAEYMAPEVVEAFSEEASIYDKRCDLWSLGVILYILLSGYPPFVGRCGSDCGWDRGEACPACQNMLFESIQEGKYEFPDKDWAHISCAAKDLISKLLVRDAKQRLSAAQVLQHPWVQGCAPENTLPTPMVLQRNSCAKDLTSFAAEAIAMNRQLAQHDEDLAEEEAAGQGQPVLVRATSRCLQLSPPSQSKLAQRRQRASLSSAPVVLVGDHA
Sequence of MAP3K11 (human) (Q16584 whole entry, looked up): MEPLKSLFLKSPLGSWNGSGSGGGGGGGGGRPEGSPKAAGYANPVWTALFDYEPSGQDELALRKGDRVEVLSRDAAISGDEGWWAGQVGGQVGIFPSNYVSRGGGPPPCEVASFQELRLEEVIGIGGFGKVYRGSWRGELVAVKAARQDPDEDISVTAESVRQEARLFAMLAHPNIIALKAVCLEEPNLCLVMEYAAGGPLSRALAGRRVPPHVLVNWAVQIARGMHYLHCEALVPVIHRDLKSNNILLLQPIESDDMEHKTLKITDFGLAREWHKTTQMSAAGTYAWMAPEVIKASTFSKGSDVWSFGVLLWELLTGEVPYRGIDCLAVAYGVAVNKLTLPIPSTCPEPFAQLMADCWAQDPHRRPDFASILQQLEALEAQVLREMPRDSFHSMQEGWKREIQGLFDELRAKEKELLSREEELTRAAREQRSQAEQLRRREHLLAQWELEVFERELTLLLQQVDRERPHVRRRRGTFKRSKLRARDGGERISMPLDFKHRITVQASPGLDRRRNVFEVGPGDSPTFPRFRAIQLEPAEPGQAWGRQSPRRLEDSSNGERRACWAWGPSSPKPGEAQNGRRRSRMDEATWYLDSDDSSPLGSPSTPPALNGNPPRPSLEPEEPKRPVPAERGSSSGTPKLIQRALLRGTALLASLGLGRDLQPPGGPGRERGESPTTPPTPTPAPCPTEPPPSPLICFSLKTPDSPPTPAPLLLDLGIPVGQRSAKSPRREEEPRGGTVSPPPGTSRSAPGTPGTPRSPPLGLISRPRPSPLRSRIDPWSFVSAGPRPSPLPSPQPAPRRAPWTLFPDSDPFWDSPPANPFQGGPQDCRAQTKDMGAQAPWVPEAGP
Sequence of PAK3 (human) (O75914 whole entry, looked up): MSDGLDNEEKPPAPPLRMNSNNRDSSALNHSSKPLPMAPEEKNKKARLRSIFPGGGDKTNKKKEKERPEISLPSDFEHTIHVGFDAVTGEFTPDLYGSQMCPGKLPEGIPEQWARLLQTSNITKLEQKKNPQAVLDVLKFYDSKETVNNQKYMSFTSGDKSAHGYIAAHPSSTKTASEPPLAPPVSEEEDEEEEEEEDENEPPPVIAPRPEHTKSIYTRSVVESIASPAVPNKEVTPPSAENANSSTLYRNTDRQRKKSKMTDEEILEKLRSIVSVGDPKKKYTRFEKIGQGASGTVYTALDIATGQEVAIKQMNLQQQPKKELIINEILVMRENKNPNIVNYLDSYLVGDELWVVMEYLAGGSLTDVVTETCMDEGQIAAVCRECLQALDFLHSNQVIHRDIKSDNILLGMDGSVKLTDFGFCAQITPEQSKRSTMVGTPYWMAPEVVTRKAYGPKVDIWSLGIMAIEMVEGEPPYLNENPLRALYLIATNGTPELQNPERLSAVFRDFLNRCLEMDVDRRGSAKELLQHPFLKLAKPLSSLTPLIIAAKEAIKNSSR
Sequence of BRSK2 (human) (Q8IWQ3 whole entry, looked up): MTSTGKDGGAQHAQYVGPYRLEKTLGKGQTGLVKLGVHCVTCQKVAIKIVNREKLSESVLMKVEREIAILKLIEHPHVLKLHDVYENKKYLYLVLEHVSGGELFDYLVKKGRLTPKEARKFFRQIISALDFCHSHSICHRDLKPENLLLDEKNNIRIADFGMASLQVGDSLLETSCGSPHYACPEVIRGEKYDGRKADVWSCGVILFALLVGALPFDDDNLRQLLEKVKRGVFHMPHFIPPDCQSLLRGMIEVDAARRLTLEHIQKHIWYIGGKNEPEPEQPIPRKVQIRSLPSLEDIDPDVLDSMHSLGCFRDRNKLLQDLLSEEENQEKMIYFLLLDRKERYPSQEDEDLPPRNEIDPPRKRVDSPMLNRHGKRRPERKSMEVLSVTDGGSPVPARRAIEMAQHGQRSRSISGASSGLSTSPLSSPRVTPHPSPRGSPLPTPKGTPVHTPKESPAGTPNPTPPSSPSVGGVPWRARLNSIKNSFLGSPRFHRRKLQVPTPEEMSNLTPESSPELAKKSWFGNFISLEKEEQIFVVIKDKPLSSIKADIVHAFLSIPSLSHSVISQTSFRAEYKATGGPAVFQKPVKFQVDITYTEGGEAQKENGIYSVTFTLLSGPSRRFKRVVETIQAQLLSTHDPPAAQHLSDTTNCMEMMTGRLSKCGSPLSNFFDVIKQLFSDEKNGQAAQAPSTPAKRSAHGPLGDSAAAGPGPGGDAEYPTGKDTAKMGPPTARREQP

SMILES: O=C(Nc1cccc(Nc2cc(Nc3cccc(C(F)(F)F)c3)ncn2)c1)C1CC1
- residual activity (CSNK2A2 (human)): 94.9%
- residual activity (PAK4 (human)): 103%
- residual activity (PRKCB2 (human)): 107%
- residual activity (DYRK3 (human)): 101%
- residual activity (ERBB2 (human)): 82.5%
- residual activity (VRK1 (human)): 94%
- residual activity (CDK2 CCNA2 (human)): 99.5%
- residual activity (NUAK1 (human)): 102%
- residual activity (HIPK3 (human)): 97%
- residual activity (MUSK (human)): 113%
- residual activity (PASK (human)): 98.3%
- residual activity (RPS6KA2 KD1 KD2 (human)): 102%
- residual activity (MELK (human)): 104%
- residual activity (PLK2 (human)): 109%
- residual activity (NEK7 (human)): 97.8%
- residual activity (LCK (human)): 100%
- residual activity (AKT2 (human)): 103%
- residual activity (MAPKAPK3 (human)): 104%
- residual activity (MAP3K11 (human)): 97.7%
- residual activity (TBK1 (human)): 99%
- residual activity (SRC (human)): 102%
- residual activity (ROCK1 (human)): 98.7%
- residual activity (CDK1 CCNA2 (human)): 97.9%
- residual activity (DSTYK (human)): 102%
- residual activity (PAK3 (human)): 101%
- residual activity (INSR (human)): 103%
- residual activity (HCK (human)): 99%
- residual activity (CLK2 (human)): 97.3%
- residual activity (LYN (human)): 102% and 99.1%
- residual activity (TSSK2 (human)): 103%
- residual activity (NTRK3 (human)): 95.1%
- residual activity (NEK3 (human)): 94.4%
- residual activity (TSSK1B (human)): 104%
- residual activity (CSK (human)): 102%
- residual activity (MINK1 (human)): 95.9%
- residual activity (DMPK (human)): 99.7%
- residual activity (EPHA3 (human)): 98.4%
- residual activity (IKBKE (human)): 97.7%
- residual activity (BRSK2 (human)): 95.8%
- residual activity (MKNK2 (human)): 83.8%
- residual activity (MAPKAPK2 (human)): 104%
- residual activity (CSNK1G3 (human)): 107%

SMILES: CC(C)c1nn(-c2c(Cl)cccc2Cl)c2nc(Cc3ccc(OCCO)cc3)nc(O)c12
- residual activity (CSNK2A2 (human)): 92.2%
- residual activity (PAK4 (human)): 106%
- residual activity (PRKCB2 (human)): 96.7%
- residual activity (DYRK3 (human)): 99%
- residual activity (ERBB2 (human)): 101%
- residual activity (VRK1 (human)): 103%
- residual activity (CDK2 CCNA2 (human)): 1.96%
- residual activity (NUAK1 (human)): 96.9%
- residual activity (HIPK3 (human)): 99%
- residual activity (MUSK (human)): 96.2%
- residual activity (PASK (human)): 95.7%
- residual activity (RPS6KA2 KD1 KD2 (human)): 80.8%
- residual activity (MELK (human)): 84%
- residual activity (PLK2 (human)): 99.8%
- residual activity (NEK7 (human)): 94%
- residual activity (LCK (human)): 88.6%
- residual activity (AKT2 (human)): 92.4%
- residual activity (MAPKAPK3 (human)): 89.2%
- residual activity (MAP3K11 (human)): 101%
- residual activity (TBK1 (human)): 97.7%
- residual activity (SRC (human)): 86.7%
- residual activity (ROCK1 (human)): 101%
- residual activity (CDK1 CCNA2 (human)): 7.71%
- residual activity (DSTYK (human)): 93.1%
- residual activity (PAK3 (human)): 94.8%
- residual activity (INSR (human)): 100%
- residual activity (HCK (human)): 94.7%
- residual activity (CLK2 (human)): 44%
- residual activity (LYN (human)): 102% and 92.7%
- residual activity (TSSK2 (human)): 105%
- residual activity (NTRK3 (human)): 90.5%
- residual activity (NEK3 (human)): 87.3%
- residual activity (TSSK1B (human)): 104%
- residual activity (CSK (human)): 106%
- residual activity (MINK1 (human)): 97.1%
- residual activity (DMPK (human)): 99.3%
- residual activity (EPHA3 (human)): 86.2%
- residual activity (IKBKE (human)): 95.6%
- residual activity (BRSK2 (human)): 98.3%
- residual activity (MKNK2 (human)): 88.9%
- residual activity (MAPKAPK2 (human)): 95.4%
- residual activity (CSNK1G3 (human)): 95.7%

SMILES: Cc1nc2cc3nc(-c4cccs4)cnc3cc2n1C
- residual activity (CSNK2A2 (human)): 99%
- residual activity (PAK4 (human)): 126%
- residual activity (PRKCB2 (human)): 121%
- residual activity (DYRK3 (human)): 111%
- residual activity (ERBB2 (human)): 92%
- residual activity (VRK1 (human)): 95.6%
- residual activity (CDK2 CCNA2 (human)): 104%
- residual activity (NUAK1 (human)): 95.3%
- residual activity (HIPK3 (human)): 101%
- residual activity (MUSK (human)): 90.6%
- residual activity (PASK (human)): 110%
- residual activity (RPS6KA2 KD1 KD2 (human)): 95%
- residual activity (MELK (human)): 95.6%
- residual activity (PLK2 (human)): 99.4%
- residual activity (NEK7 (human)): 86.5%
- residual activity (LCK (human)): 86.3%
- residual activity (AKT2 (human)): 91.5%
- residual activity (MAPKAPK3 (human)): 102%
- residual activity (MAP3K11 (human)): 91.1%
- residual activity (TBK1 (human)): 93%
- residual activity (SRC (human)): 89.9%
- residual activity (ROCK1 (human)): 97.8%
- residual activity (CDK1 CCNA2 (human)): 102%
- residual activity (DSTYK (human)): 106%
- residual activity (PAK3 (human)): 98.8%
- residual activity (INSR (human)): 99.9%
- residual activity (HCK (human)): 98%
- residual activity (CLK2 (human)): 95.3%
- residual activity (LYN (human)): 117% and 97.8%
- residual activity (TSSK2 (human)): 98.2%
- residual activity (NTRK3 (human)): 59.9%
- residual activity (NEK3 (human)): 108%
- residual activity (TSSK1B (human)): 91.3%
- residual activity (CSK (human)): 101%
- residual activity (MINK1 (human)): 98.9%
- residual activity (DMPK (human)): 100%
- residual activity (EPHA3 (human)): 102%
- residual activity (IKBKE (human)): 89.8%
- residual activity (BRSK2 (human)): 98%
- residual activity (MKNK2 (human)): 108%
- residual activity (MAPKAPK2 (human)): 95.4%
- residual activity (CSNK1G3 (human)): 96.1%

SMILES: O=C(CCCc1ccc(-c2ccccc2F)cc1)Nc1ccc(O)cc1
- residual activity (CSNK2A2 (human)): 78.7%
- residual activity (PAK4 (human)): 95.4%
- residual activity (PRKCB2 (human)): 102%
- residual activity (DYRK3 (human)): 94.5%
- residual activity (ERBB2 (human)): 101%
- residual activity (VRK1 (human)): 95.5%
- residual activity (CDK2 CCNA2 (human)): 92.7%
- residual activity (NUAK1 (human)): 96.4%
- residual activity (HIPK3 (human)): 99.4%
- residual activity (MUSK (human)): 93.1%
- residual activity (PASK (human)): 101%
- residual activity (RPS6KA2 KD1 KD2 (human)): 101%
- residual activity (MELK (human)): 95.5%
- residual activity (PLK2 (human)): 102%
- residual activity (NEK7 (human)): 97.3%
- residual activity (LCK (human)): 95.5%
- residual activity (AKT2 (human)): 101%
- residual activity (MAPKAPK3 (human)): 91%
- residual activity (MAP3K11 (human)): 101%
- residual activity (TBK1 (human)): 98.2%
- residual activity (SRC (human)): 93.7%
- residual activity (ROCK1 (human)): 106%
- residual activity (CDK1 CCNA2 (human)): 93.7%
- residual activity (DSTYK (human)): 103%
- residual activity (PAK3 (human)): 104%
- residual activity (INSR (human)): 102%
- residual activity (HCK (human)): 93.5%
- residual activity (CLK2 (human)): 103%
- residual activity (LYN (human)): 102% and 87.7%
- residual activity (TSSK2 (human)): 115%
- residual activity (NTRK3 (human)): 96.3%
- residual activity (NEK3 (human)): 109%
- residual activity (TSSK1B (human)): 107%
- residual activity (CSK (human)): 88%
- residual activity (MINK1 (human)): 97.3%
- residual activity (DMPK (human)): 130%
- residual activity (EPHA3 (human)): 100%
- residual activity (IKBKE (human)): 98.2%
- residual activity (BRSK2 (human)): 99.2%
- residual activity (MKNK2 (human)): 106%
- residual activity (MAPKAPK2 (human)): 103%
- residual activity (CSNK1G3 (human)): 104%
